Reference: US10717716B2, “1,3,4-oxadiazole derivative compounds as histone deacetylase 6 inhibitor, and the pharmaceutical composition comprising the same” (Chong Kun Dang Pharmaceutical Corp., priority 2015, dated 2020)
pIC50: −log10 of the molar value.

Tests used:
[1] = target: T1, human recombinant HDAC1 (Homo sapiens, UniProt Q13547); assay: HDAC1 enzyme activity inhibition assay (HDAC Fluorimetric Drug Discovery Kit); format: biochemical; details: 30° C. 60 minutes
T1 construct: purchased Enzo Life Science BML-SE456
T1 sequence (Q13547 whole entry): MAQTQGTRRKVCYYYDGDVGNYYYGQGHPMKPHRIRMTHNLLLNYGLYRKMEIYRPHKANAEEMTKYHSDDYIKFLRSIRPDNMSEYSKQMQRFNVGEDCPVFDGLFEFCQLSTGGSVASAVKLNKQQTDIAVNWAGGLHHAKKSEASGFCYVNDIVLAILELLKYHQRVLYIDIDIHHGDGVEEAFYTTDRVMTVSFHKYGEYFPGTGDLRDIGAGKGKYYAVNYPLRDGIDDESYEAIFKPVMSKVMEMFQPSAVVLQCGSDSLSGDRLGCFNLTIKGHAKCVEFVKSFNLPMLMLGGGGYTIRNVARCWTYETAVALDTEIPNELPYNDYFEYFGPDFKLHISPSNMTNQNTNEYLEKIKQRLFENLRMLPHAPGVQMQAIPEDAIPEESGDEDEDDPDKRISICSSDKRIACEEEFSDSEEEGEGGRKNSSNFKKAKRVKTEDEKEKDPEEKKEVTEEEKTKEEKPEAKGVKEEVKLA
Summary of the method: (§1)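 Fluorimetric deacetylase assay: 5-fold serial compound dilutions, 0.3 μg recombinant human enzyme (HDAC1 or HDAC6, same protocol), 10 μM Fluor de Lys-SIRT1 substrate, 60 min at 30 °C. Signal developed 30 min, measured at 360/460 nm; IC50 values derived.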

[2] = target: T2, human recombinant HDAC6 (Homo sapiens, UniProt Q9UBN7); assay: HDAC6 enzyme activity inhibition assay (HDAC Fluorimetric Drug Discovery Kit); format: biochemical; details: for HDAC6 selectivity (fold): HDAC6 over HDAC1; for pIC50: human recombinant HDAC6, same protocol as HDAC1, read-out: HDAC6
T2 construct: purchased Calbiochem 382180
T2 sequence (Q9UBN7 1-1215): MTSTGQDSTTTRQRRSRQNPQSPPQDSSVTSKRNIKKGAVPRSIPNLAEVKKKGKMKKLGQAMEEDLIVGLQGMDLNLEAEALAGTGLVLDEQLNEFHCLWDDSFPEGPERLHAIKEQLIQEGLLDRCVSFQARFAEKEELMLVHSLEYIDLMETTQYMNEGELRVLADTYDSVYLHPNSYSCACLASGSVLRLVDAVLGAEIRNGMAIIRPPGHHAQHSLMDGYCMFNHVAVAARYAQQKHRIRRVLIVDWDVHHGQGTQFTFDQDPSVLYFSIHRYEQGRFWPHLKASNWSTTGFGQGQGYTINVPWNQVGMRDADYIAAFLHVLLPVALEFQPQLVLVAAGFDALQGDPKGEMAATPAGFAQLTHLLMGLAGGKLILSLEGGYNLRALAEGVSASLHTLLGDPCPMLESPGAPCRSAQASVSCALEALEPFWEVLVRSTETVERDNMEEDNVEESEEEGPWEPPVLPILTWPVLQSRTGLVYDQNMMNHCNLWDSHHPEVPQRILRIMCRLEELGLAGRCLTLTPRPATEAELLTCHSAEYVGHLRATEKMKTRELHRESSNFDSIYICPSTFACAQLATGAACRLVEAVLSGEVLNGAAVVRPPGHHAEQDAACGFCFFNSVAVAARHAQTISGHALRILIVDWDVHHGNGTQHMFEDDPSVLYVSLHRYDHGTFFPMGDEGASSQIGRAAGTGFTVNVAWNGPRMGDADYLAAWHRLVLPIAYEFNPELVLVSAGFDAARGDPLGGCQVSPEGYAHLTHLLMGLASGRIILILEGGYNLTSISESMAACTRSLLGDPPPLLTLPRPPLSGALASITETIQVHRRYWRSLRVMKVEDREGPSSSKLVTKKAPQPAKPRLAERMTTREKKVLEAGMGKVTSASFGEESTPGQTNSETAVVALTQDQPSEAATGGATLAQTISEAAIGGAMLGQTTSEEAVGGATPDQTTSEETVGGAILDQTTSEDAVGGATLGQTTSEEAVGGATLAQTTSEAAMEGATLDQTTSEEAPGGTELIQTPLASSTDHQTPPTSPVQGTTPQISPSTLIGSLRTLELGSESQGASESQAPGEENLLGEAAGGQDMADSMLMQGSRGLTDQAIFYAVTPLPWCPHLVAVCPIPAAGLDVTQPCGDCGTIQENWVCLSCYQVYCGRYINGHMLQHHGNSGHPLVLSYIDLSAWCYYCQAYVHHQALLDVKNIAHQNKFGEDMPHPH
Summary of the method: as §1

[3] = human recombinant HDAC1, Fluor de Lys substrate 10 μM
[4] = human recombinant HDAC1, Fluor de Lys substrate

| SMILES | pIC50 [1, 3] | HDAC6 selectivity (fold) [2] [fold] | pIC50 [2] | pIC50 [1, 4] |
| --- | --- | --- | --- | --- |
| CCN1CCN(C(=O)N(Cc2ccc(-c3nnc(C(F)(F)F)o3)cn2)c2ccc(OC)cc2)CC1 [Compound 21876, 4-Ethyl-N-(4-methoxyphenyl)-N-((5-(5-(trifluoromethyl)-1,3,4-oxadiazol-2-yl)pyridin-2-yl)methyl)piperazine-1-carboxamide] | 4.93 | 46 | 6.59 |  |
| CCN1CCN(C(=O)N(Cc2ccc(-c3nnc(C(F)F)o3)cc2)c2cccc(Cl)c2)CC1 [Compound 21877, N-(3-Chlorophenyl)-N-(4-(5-(difluoromethyl)-1,3,4-oxadiazol-2-yl)benzyl)-4-ethylpiperazine-1-carboxamide] | 4.19 | 1424 | 7.34 |  |
| CCN1CCN(C(=O)N(Cc2ccc(-c3nnc(C(F)F)o3)cc2F)c2cccc(Cl)c2)CC1 [Compound 21878, N-(3-Chlorophenyl)-N-(4-(5-(difluoromethyl)-1,3,4-oxadiazol-2-yl)-2-fluorobenzyl)-4-ethylpiperazine-1-carboxamide] | 4.67 | 522 | 7.39 |  |
| CCN1CCN(C(=O)N(Cc2ccc(-c3nnc(C(F)F)o3)cn2)c2cccc(Cl)c2)CC1 [Compound 21879, N-(3-Chlorophenyl)-N-((5-(5-(difluoromethyl)-1,3,4-oxadiazol-2-yl)pyridin-2-yl)methyl)-4-ethylpiperazine-1-carboxamide] | 4.55 | 1064 | 7.59 |  |
| CCN1CCN(C(=O)N(Cc2ccc(-c3nnc(C(F)F)o3)cc2)c2ccc(Cl)cc2)CC1 [Compound 21880, N-(4-Chlorophenyl)-N-(4-(5-(difluoromethyl)-1,3,4-oxadiazol-2-yl)benzyl)-4-ethylpiperazine-1-carboxamide] | 4.35 | 467 | 7.02 |  |
| CCN1CCN(C(=O)N(Cc2ccc(-c3nnc(C(F)F)o3)cc2)c2ccc(OC)cc2)CC1 [Compound 21892, N-(4-(5-(Difluoromethyl)-1,3,4-oxadiazol-2-yl)benzyl)-4-ethyl-N-(4-methoxyphenyl)piperazine-1-carboxamide] | 4.31 | 548 | 7.05 |  |
| CCN1CCN(C(=O)N(Cc2ccc(-c3nnc(C(F)F)o3)cc2F)c2ccc(OC)cc2)CC1 [Compound 21893, N-(4-(5-(Difluoromethyl)-1,3,4-oxadiazol-2-yl)-2-fluorobenzyl)-4-ethyl-N-(4-methoxyphenyl)piperazine-1-carboxamide] | 4.43 | 640 | 7.23 |  |
| CCN1CCN(C(=O)N(Cc2ccc(-c3nnc(C(F)F)o3)cn2)c2ccc(OC)cc2)CC1 [Compound 21894, N-((5-(5-(Difluoromethyl)-1,3,4-oxadiazol-2-yl)pyridin-2-yl)methyl)-4-ethyl-N-(4-methoxyphenyl)piperazine-1-carboxamide] | 4.12 | 1588 | 7.32 |  |
| O=C(N1CCS(=O)(=O)CC1)N(Cc1ccc(-c2nnc(C(F)F)o2)cc1F)c1ccc(CN2CCN(C3COC3)CC2)cc1 [Compound 21896, N-(4-(5-(difluoromethyl)-1,3,4-oxadiazol-2-yl)-2-fluorobenzyl)-N-(4-((4-(oxetan-3-yl)piperazin-1-yl)methyl)phenyl)thiomorpholine-4-carboxamide 1,1-dioxide] | 4.55 | 82 | 6.46 |  |
| CC(C)(C)CN1CCN(Cc2ccc(N(Cc3ccc(-c4nnc(C(F)(F)F)o4)cc3F)C(=O)N3CCS(=O)(=O)CC3)cc2)CC1 [Compound 21897, N-(2-fluoro-4-(5-(trifluoromethyl)-1,3,4-oxadiazol-2-yl)benzyl)-N-(4-((4-neopentylpiperazin-1-yl)methyl)phenyl)thiomorpholine-4-carboxamide 1,1-dioxide] | 4.17 | 140 | 6.31 |  |
| O=C(N1CCS(=O)(=O)CC1)N(Cc1ccc(-c2nnc(C(F)(F)F)o2)cc1F)c1ccc(CN2CCN(C3COC3)CC2)cc1 [Compound 21898, N-(2-fluoro-4-(5-(trifluoromethyl)-1,3,4-oxadiazol-2-yl)benzyl)-N-(4-((4-(oxetan-3-yl)piperazin-1-yl)methyl)phenyl)thiomorpholine-4-carboxamide 1,1-dioxide] | 4.39 | 164 | 6.61 |  |
| CCN1CCN(Cc2ccc(N(Cc3ccc(-c4nnc(C(F)F)o4)cc3F)C(=O)N3CCS(=O)(=O)CC3)cc2)CC1 [Compound 21899, N-(4-(5-(difluoromethyl)-1,3,4-oxadiazol-2-yl)-2-fluorobenzyl)-N-(4-((4-ethylpiperazin-1-yl)methyl)phenyl)thiomorpholine-4-carboxamide 1,1-dioxide] | 4.12 | 1364 | 7.26 |  |
| O=C(N1CCN(C2COC2)CC1)N(Cc1ccc(-c2nnc(C(F)F)o2)cn1)c1ccccc1 [Compound 21905, N-((5-(5-(Difluoromethyl)-1,3,4-oxadiazol-2-yl)pyridin-2-yl)methyl)-4-(oxetan-3-yl)-N-phenylpiperazine-1-carboxamide] | 4.25 | 1454 | 7.41 |  |
| O=C(N1CCOCC1)N(Cc1ccc(-c2nnc(C(F)(F)F)o2)cc1F)c1ccc(F)c(Cl)c1 [Compound 21930, N-(3-chloro-4-fluorophenyl)-N-(2-fluoro-4-(5-(trifluoromethyl)-1,3,4-oxadiazol-2-yl)benzyl)morpholine-4-carboxamide] |  | 35 | 6.38 | 4.84 |
| O=C(N1CCN(C2COC2)CC1)N(Cc1ccc(-c2nnc(C(F)F)o2)cn1)c1ccc(F)cc1 [Compound 21941, N-((5-(5-(Difluoromethyl)-1,3,4-oxadiazol-2-yl)pyridin-2-yl)methyl)-N-(4-fluorophenyl)-4-(oxetan-3-yl)piperazine-1-carboxamide] |  | 446 | 6.99 | 4.34 |
| O=C(N1CCN(C2COC2)CC1)N(Cc1ccc(-c2nnc(C(F)F)o2)cc1F)c1cccc(Cl)c1 [Compound 21943, N-(3-Chlorophenyl)-N-(4-(5-(difluoromethyl)-1,3,4-oxadiazol-2-yl)-2-fluorobenzyl)-4-(oxetan-3-yl)piperazine-1-carboxamide] |  | 611 | 7.32 | 4.53 |
| COc1cccc(N(Cc2ccc(-c3nnc(C(F)F)o3)cc2)C(=O)N2CCN(C3COC3)CC2)c1 [Compound 21948, N-(4-(5-(Difluoromethyl)-1,3,4-oxadiazol-2-yl)benzyl)-N-(3-methoxyphenyl)-4-(oxetan-3-yl)piperazine-1-carboxamide] |  | 188 | 6.61 | 4.33 |
| COc1cccc(N(Cc2ccc(-c3nnc(C(F)F)o3)cc2F)C(=O)N2CCN(C3COC3)CC2)c1 [Compound 21949, N-(4-(5-(Difluoromethyl)-1,3,4-oxadiazol-2-yl)-2-fluorobenzyl)-N-(3-methoxyphenyl)-4-(oxetan-3-yl)piperazine-1-carboxamide] |  | 383 | 6.90 | 4.32 |
| O=C(N1CCN(C2COC2)CC1)N(Cc1ccc(-c2nnc(C(F)F)o2)cc1)c1ccccc1 [Compound 21954, N-(4-(5-(Difluoromethyl)-1,3,4-oxadiazol-2-yl)benzyl)-4-(oxetan-3-yl)-N-phenylpiperazine-1-carboxamide] |  | 245 | 6.84 | 4.45 |
| O=C(NCCN1CCS(=O)(=O)CC1)N(Cc1ccc(-c2nnc(C(F)F)o2)cc1F)c1ccccc1 [Compound 21985, 1-(4-(5-(Difluoromethyl)-1,3,4-oxadiazol-2-yl)-2-fluorobenzyl)-3-(2-(1,1-dioxidothiomorpholino)ethyl)-1-phenylurea] |  | 480 | 7.35 | 4.67 |
